Results from patent US10532064B2, “Biophosphonate compounds and gamma delta T cell-mediated therapy for treating epstein-barr virus-associated disorders” (priority 2014, dated 2020).

Assays:
[1] = test system: cytolytic activities of Vγ9Vδ2-T cells against EBV-LCL; assay: Blocking of Vγ9Vδ2-T cell cytotoxicity against EBV-LCL by inhibitors and neutralizing antibodies; assay type: cell-based, human; conditions: E:T 10:1; antibodies 10 μg/ml, CMA and Bcl-2 1 μg/ml
Description: FIG. 1A: Phenotypes of EBV-LCL and autologous normal human B cells. The white histograms represent MICA/B, Fas, FasL DR4 and DR5, and the gray histograms represent isotype controls. […] FIG. 1C, 1D, 1G: PAM-expanded Vγ9Vδ2 T cells purified by positive selection were co-cultured with autologous EBV-LCL or normal B cells at different E:T ratios (FIG. 1C) or an E:T ratio of 10:1 (FIGS. 1D and 1G) for 4-6 hours. FIG. 1D: The Vγ9Vδ2 T cells were directly co-cultured with or physically separated from autologous EBV-LCLs for 6 hours by using a transwell system. […] FIG. 1G: The perforin inhibitor CMA, granzyme B inactivator Bcl-2, anti-NKG2D (αNKG2D), anti-TRAIL (αTRAIL) and anti-FasL (αFasL) blocking antibodies, or their relevant isotype control (mouse IgG1, mIgG1) were used in co-culture of EBV-LCL and their autologous PAM-expanded Vγ9Vδ2 T cells. The cytotoxicity was shown as the percentage of inhibition relative to those without any treatment. All the data shown as mean±SEM are representative of four independent experiments. *p<0.05.

[2] = test system: EBV-LPD; assay: Control of EBV-LPD by pamidronate in humanized mice (whole huPBMC); assay type: in vivo
Description: FIG. 8A: Protocol for the control of EBV-LPD by pamidronate (PAM) in humanized mice. Humanized mice were treated with PAM or PBS at day 0, 7, 14, 21, 28 after inoculation of EBV-LCL. FIG. 8B-8D: After treatment with PAM (n=8) or PBS (n=7), the survival (FIG. 8B), tumor incidence (FIG. 8C) and tumor volume (FIG. 8D) were measured at the indicated time.
(§1) Vγ9Vδ2-T-cell-depleted huPBMC were obtained after double depletions of […] by positive selection with magnetic microbeads. Rag2^−/−γc^−/− mice were transplanted with whole huPBMC or Vγ9Vδ2-T-cell-depleted huPBMC from the same healthy human donor. […] Humanized mice reconstituted with whole huPBMC (PBMC) or Vγ9Vδ2-T-cell-depleted huPBMC (PBMC-γδ-T) were inoculated with EBV-LCL and treated with pamidronate or PBS according to the protocol shown in FIG. 8A. The survival (FIG. 9A), tumor incidence (FIG. 9B) and tumor volume (FIG. 9C) in humanized mice (PBMC+PAM, n=12; PBMC-γδ-T+PAM, n=7; PBMC-γδ-T+PBS, n=6) are shown.
All animal studies were approved and performed in compliance with the guidelines for the use of experimental animals by the Committee on the Use of Live Animals in the Teaching and Research, the University of Hong Kong. Humanized mice were generated in 4-5 weeks old male or female Rag2^−/−γc^−/− mice by reconstitution of EBV seropositive whole huPBMC or Vγ9Vδ2-T-cell-depleted huPBMC as we described before (Tu et al., 2011). […] Humanized mice or 6-8 week old Rag2^−/−γc^−/− mice were inoculated s.c. with EBV-LCL or EGFP-expressing EBV-LCL (0.1×10^6/mouse). […] For humanized mice, a human equivalent dose of PAM (10 mg/kg body weight; Pamisol; Hospira Austrilia Pty Led) was injected i.p. at indicated time. The mice treated with an equivalent volume of PBS were used as controls. The signs of disease (loss of activity, weight loss, ruffled hair, palpable tumors, and ascites) and survival of mice were monitored. Mice with more than 17 mm of diameter subcutaneous tumor were sacrificed and counted as dying. Otherwise, mice were followed for 100 or 170 days and then killed. All mice were examined for postmortem evidence of tumor. The tumors and organs were collected for histology and immunohistochemistry assays.
After inoculation with EBV-LCL (1×10^5/mouse) s.c., humanized mice were injected intraperitoneally (i.p.) with pamidronate (10 mg/kg body weight) at day 0, 7, 14, 21 and 28 post EBV-LCL inoculation (FIG. 8A). PBS-treated mice were used as controls.
Mice reconstituted with whole huPBMC or Vγ9Vδ2-T-cell-depleted huPBMC were inoculated with EBV-LCLs s.c. and injected with pamidronate (10 mg/kg body weight) i.p. at day 0, 7, 14, 21 and 28 post EBV-LCL inoculation.

[3] = test system: Vγ9Vδ2-T cells; assay: Expansion of Vγ9Vδ2-T cells from huPBMC in vitro with PAM and IL-2; assay type: cell-based, human
Description: The data are representative of 4 independent experiments. […] Data are representative of 4 independent experiments. […] Data are representative of 4 independent experiments.
Briefly, huPBMC were cultured in RPMI 1640 medium supplemented with 10% FBS. Pamidronate was added at day 0 and day 3 to a final concentration 9 μg/ml.
Human PBMCs were isolated from buffy coat preparation or anticoagulated peripheral blood by Ficoll-paque (GE Health life Science) gradient centrifugation. The PBMCs were cultured in 10% FBS-RPMI1640 supplemented with 15 ul of expansion reagent A; 25 ul of expansion reagent B was added from day 3 post culture. […] Data are representative for 4 independent experiments.

[4] = test system: EBV-LPD; assay: Pamidronate in humanized mice reconstituted with Vγ9Vδ2-T-cell-depleted huPBMC; assay type: in vivo; conditions: 10 mg/kg i.p. day 0, 7, 14, 21, 28
Text: as §1
All animal studies were approved and performed in compliance with the guidelines for the use of experimental animals by the Committee on the Use of Live Animals in the Teaching and Research, the University of Hong Kong. Humanized mice were generated in 4-5 weeks old male or female Rag2^−/−γc^−/− mice by reconstitution of EBV seropositive whole huPBMC or Vγ9Vδ2-T-cell-depleted huPBMC as we described before (Tu et al., 2011). […] The signs of disease (loss of activity, weight loss, ruffled hair, palpable tumors, and ascites) and survival of mice were monitored. Mice with more than 17 mm of diameter subcutaneous tumor were sacrificed and counted as dying. […]

[5] = Example 5, vs PBS-treated humanized mice
[6] = Example 6, humanized mice with whole huPBMC
[7] = post 20 days of in vitro culture in the presence of PAM and IL-2

Compound | effect on cytolytic activity of Vγ9Vδ2-T cells against EBV-LCL [1] | mice died within 100 days ([2]; 10 mg/kg i.p. day 0, 7, 14, 21, 28, 1 out of 8 mice, all PBS mice died) [%] | mice with subcutaneous tumor growth within 100 days ([2]; 10 mg/kg i.p. day 0, 7, 14, 21, 28, 3 out of 8 mice) [%] | frequency of Vγ9Vδ2-T cells in the peripheral blood ([2]; 10 mg/kg i.p., vs PBS) | persistence of Vγ9Vδ2-T cells in the peripheral blood ([2]; EBV-LCL-grafted humanized mice, pamidronate-treated) | survival ([2]; Example 5, PAM n=8 vs PBS n=7) | tumor incidence [2, 5] | tumor volume [2, 5] | tumor occurrence [2, 6] | tumor volume [2, 6] | survival ([2]; Example 6, humanized mice with whole huPBMC, n=12) | tumor metastasis in other organs at necropsy ([2]; day 100, surviving 7 mice) | activation and expansion of Vγ9Vδ2-T cells ([3]; huPBMC, PAM 9 μg/mL, rhIL-2 from day 3) | expansion of Vγ9Vδ2-T cells (mean) [3, 7] [fold] | expansion of Vγ9Vδ2-T cells (range) [3, 7] | percentage of Vγ9Vδ2-T cells within the PBMCs (mean) [3, 7] [%] | percentage of Vγ9Vδ2-T cells within the PBMCs (range) ([3]; post 20 days of in vitro culture in the presence of PAM and IL-2, baseline 1-5% (mean 3%), 4 experiments) | effects on survival, tumor occurrence and tumor volume [4]
C/C=C/[C@H]1O[C@@](O)([C@@H](C)[C@H](O)[C@H](C)[C@H]2OC(=O)/C(OC)=C/C(C)=C/[C@@H](C)[C@@H](O)[C@@H](CC)[C@@H](O)[C@H](C)C/C(C)=C/C=C/[C@@H]2OC)C[C@@H](O[C@H]2C[C@@H](O)[C@H](OC(N)=O)[C@@H](C)O2)[C@@H]1C [CMA, concanamycin A] | strongly inhibited | – | – | – | – | – | – | – | – | – | – | – | – | – | – | – | – | –
NCCC(O)(P(=O)(O)O)P(=O)(O)O [pamidronate] | – | 12.5 | 37.5 | significantly increased | up to 98 days | significantly prolonged | significantly lower tumor incidence | reduced tumor volume | reduced tumor occurrence | decreased tumor volume | significantly prolonged survival | failed to show any evidence of tumor metastasis | induced selective activation and expansion | 198 | 156-309 fold | 82 | 67-95% | had no such effects
Bcl-2: granzyme B inactivator Bcl-2 (R&D Systems) | strongly inhibited | – | – | – | – | – | – | – | – | – | – | – | – | – | – | – | – | –
